Experimental data taken from patent publication US6670351B1, “Method for ameliorating muscle weakness/wasting in a patient infected with human immunodeficiency virus-type 1” (Bio-Technology General Corporation, priority 1992, dated 2003).
Where two headings read alike, the source gives them in different places.

Experiments:
[1] = test system: patients with uterine cervical cancer; details: administered parentally; cited from earlier work
[2] = test system: HIV-associated myopathy and muscle weakness/wasting; assay: Case example: HIV-seropositive patient with HIV-associated myopathy and muscle weakness/wasting; assay type: in vivo, human; details: for return to previous levels of function and strength: trial after oxandrolone was no longer obtainable
Text: A patient, a homosexual person, known to be HIV-seropositive since February 1989, noted difficulty opening drawers and bottles in May 1989. […] However, their muscle stretch reflexes remained normal.
They complained of an inability to ascend a flight of stairs. […] The patient's creatine kinase tested at 456 Units per liter. […] Round cell inflammatory infiltrates were also noted. In light of these developments, the zidovudine treatment was terminated.
Substantial improvement initially followed the discontinuation of zidovudine. However, because of a subsequent continued and progressive weakness rendering it difficult for the patient to ascend or descend a flight of stairs, a prednisone therapy (60 mg daily) was initiated.
Thereafter, a trial period of oral oxandrolone administration (2.5 milligrams, three times daily, in tablet form) was initiated. […] The patient's weight increased from 115 pounds to 130 pounds. The patient's muscle atrophy was alleviated as well.
After several months of the aforementioned therapy with oxandrolone, the patient was no longer able to obtain oxandrolone for use as a medication. Weakness and weight loss ensued.

[3] = test system: acute uremic rats; details: cited from earlier work
[4] = test system: chronic renal failure; details: cited from earlier work
[5] = cited from earlier work
[6] = published parameter; cited from earlier work
[7] = test system: patients with acute alcoholic hepatitis; details: cited from earlier work
[8] = oral 2.5 milligrams three times daily
[9] = man, oral 10 milligram dose, biphasic decline

## CCCCCCCCCC(=O)O[C@H]1CC[C@H]2[C@@H]3CCC4=CC(=O)CC[C@@H]4[C@H]3CC[C@]12C [nandrolone decanonate]
[1]
  macrophage activity and cell-mediated immunity: enhanced macrophage activity and cell-mediated immunity

## CC1(O)CC[C@H]2[C@@H]3CCC4CC(=O)OC[C@]4(C)[C@H]3CC[C@@]21C (stereo partly shown) [oxandrolone, 17-hydroxy-17-methyl-2-oxaandrostan-3-one]
[2]; [8]
  ability to use stairs within one month: able to ascend and descend stairs without problems
  muscle atrophy: alleviated
  strength by confrontation testing: nearly normal strength
[2]; oral 2.5 milligrams three times daily, liver functions closely monitored
  liver functions / side effects: undesirable side effects were not detected
[2]; oral 2.5 milligrams three times daily, tablet
  patient's well being, strength and weight within two weeks: improved sense of well being, became stronger, and gained weight
[2]; oral 2.5 milligrams three times daily, increased from 115 pounds
  patient's weight after therapy: 130 pounds
[3]
  muscle protein synthesis: increased muscle protein synthesis
[4]
  clinical improvement after administration: clinical improvement in appetite, cell mass, linear growth, and weight for height
[5]; after 96 hours
  urinary excretion of the administered dose: approximately 65%
[5]; [9]
  distribution half-life: approximately 30 minutes
  elimination half-life: 9.4 h
[5]; man, oral 10 milligram dose
  absorption: rapidly and completely absorbed
  time of mean peak plasma concentration: 66 min
[5]; man
  protein binding: extensive
[5]; over the same time period (96 hours)
  fecal excretion: less than 3%
[5]; taken orally
  form of excretion: excreted mainly unchanged and unconjugated in urine
[5]; within 72 hours after ingestion
  urinary excretion of an oral dose: approximately 35%
[6]
  Biological T½: 9.4 hr
  Glucuronidation: Little
  Metabolism: Little
  Oral Bioavailability: 100%
  Plasma Clearance: 0.717 mL/min/kg
  Tmax: 1.1 h
  Vd: 0.578 L/kg
  protein binding: >95%
[7]; daily doses up to 80 mg/day for four weeks and 40 mg/day for eight weeks
  drug-related nephrotoxicity: did not result in any drug-related nephrotoxicity
[7]; patients with severe alcoholic hepatitis
  lymphocyte number: significantly improved lymphocyte number

## C[C@]12C/C(=C/O)C(=O)C[C@@H]1CC[C@@H]1[C@@H]2CC[C@@]2(C)[C@H]1CC[C@]2(C)O [oxymethalone]
[2]
  return to previous levels of function and strength: did not return the patient to their previous levels of function and strength

## C[C@]12C=CC(=O)C=C1CC[C@@H]1[C@@H]2C(=O)C[C@@]2(C)[C@H]1CC[C@]2(O)C(=O)CO [prednisone]
[2]; 60 mg daily
  improvement of weakness: No significant improvement

## C[C@]12Cc3c[nH]nc3C[C@@H]1CC[C@@H]1[C@@H]2CC[C@@]2(C)[C@H]1CC[C@]2(C)O [stanazol]
[2]
  return to previous levels of function and strength: did not return the patient to their previous levels of function and strength
